Data published in patent publication US11203739B2, “Modulating cell proliferation and pluripotency” (Memorial Sloan Kettering Cancer Center, priority 2014, dated 2021).
Entries after “also recorded” stand apart in the source; their conditions may differ.

Tests used:
Assay type in all cases: cell-based, mouse
[1] = test system: ESC-1 cells; test: qRT-PCR gene expression of ICM and germline-associated genes; settings: for expression of ICM and germline-associated genes: ESC-1 cells, three days
Procedure: qRT-PCR. RNA was isolated using the RNeasy kit (Qiagen). After DNase treatment, 1-2 μg RNA was used for cDNA synthesis using the First-Strand Synthesis kit (Invitrogen). Quantitative RT-PCR analysis was performed in biological triplicate using an ABI Prism 7000 (Applied Biosystems) with Platinum SYBR green.

[2] = test system: ESC-1 cells; test: Colony formation (self-renewal) assay with alkaline phosphatase staining; settings: S/L medium, 4 mM, four days; for number of undifferentiated colonies: compared to S/L and the other treatment
Procedure: Self-renewal assays. ES cells free of feeder MEFs were plated at 100 cells per well in 6-well plates coated with 20 μg/mL mouse laminin (Stemgent 06-0002) in maintenance S/L medium. The following day media was changed to S/L experimental medium containing dimethyl-α-ketoglutarate (4 mM, Sigma 349631), dimethyl-succinate (4 mM, Sigma W239607) or DMSO vehicle control. Four days later cells were washed with PBS and stained for alkaline phosphatase using Vector Red Alkaline Phosphatase Kit (Vector Labs) according to manufacturer's instructions.

[3] = test system: ESC-1 cells; test: GC-MS metabolite profiling, αKG:succinate ratio; settings: 1 μM or 5 μM, 3 hours; for αKG:succinate ratio: S/L or 2i/L medium
Procedure: Metabolite profiling. For all metabolite experiments, cells were seeded in their standard culture medium in 6-well plates and the next day were changed into experimental medium. Medium was changed again at the indicated time before harvest (usually 1-24 hours). Metabolites were extracted with 1 mL ice-cold 80% methanol supplemented with 20 μM deuterated 2-hydroxyglutarate (D-2-hydroxyglutaric-2,3,3,4,4-d5 acid, d5-2HG) as an internal standard. After overnight incubation at −80° C., lysates were harvested and centrifuged at 21,000 g for 20 minutes to remove protein. Extracts were dried in an evaporator (Genevac EZ-2 Elite) and resuspended by incubation at 30° C. for 2 hours in 50 μL of 40 mg/mL methoxyamine hydrochloride in pyridine. Metabolites were further derivatized by addition of 80 μL of MSTFA +1% TCMS (Thermo Scientific) and 70 μl ethyl acetate (Sigma) and incubated at 37° C. for 30 minutes. Samples were analyzed using an Agilent 7890A GC coupled to Agilent 5975C mass selective detector. […] Peaks representing compounds of interest were extracted and integrated using MassHunter software (Agilent Technologies) and then normalized to both the internal standard (d5-2HG) peak area and protein content of duplicate samples as determined by BCA protein assay (Thermo Scientific). Ions used for quantification of metabolite levels are as follows: d5-2HG m/z 354; KG, m/z 304; aspartate, m/z 334; citrate, m/z 465; glutamate, m/z 363; malate, m/z 335 and succinate, m/z 247. […] Enrichment of ^13C was assessed by quantifying the abundance of the following ions: αKG, m/z 304-315; aspartate, m/z 334-346; citrate, m/z 465-482; glutamate, m/z 363-377 and malate, m/z 335-347. […] Flux was calculated as the product of the first order rate constant of the kinetic labeling curve and relative metabolite pool size (normalized to mean S/L values for each experiment)^5. The flux from glucose- and glutamine-derived carbons was calculated for each of three independent experiments and the average total flux for each metabolite was shown.

[4] = test system: UTX and Jmjd3; test: Western blot of H3K27 methylation after GSK-J4 treatment; settings: ESC-1 cells in S/L, increasing amounts of GSK-J4, 24 hours
Procedure: (§1) Cell culture. Maintenance media for ES cells were as follows: serum/LIF (S/L) maintenance medium contained Knockout DMEM (Gibco) supplemented with 15% ESC-qualified FBS (Gemini), penicillin/streptomycin (Life Technologies), 0.1 mM 2-mercaptoethanol, L-glutamine (2 mM, Life Technologies) and leukemia inhibitory factor (LIF) plated onto irradiated feeder mouse embryonic fibroblasts (MEFs); 2i/LIF maintenance conditions used a base medium made from a 1:1 mix of DMEM/F12 (Life Technologies 11302-033) and Neurobasal (Life Technologies 21103-049) containing N2 and B27 supplements (Life Technologies 17502-048 and 17504-044, 1:100 dilutions), penicillin/streptromycin, 0.1 mM 2-mercaptoethanol, L-glutamine (2 mM), LIF, CHIR99021 at 3 μM (Stemgent) and PD0325901 at 1 μM (Stemgent). Experimental media utilized for all experiments (except growth curves with and without glucose, ^13C isotope tracing experiments and ^14C labeling experiments) contained 1:1 mix of glutamine-free DMEM (Life Technologies 11960-051) and Neurobasal (Life Technologies 21103-049) with or without 2 mM glutamine. With the exception of 15% dialyzed FBS (Gemini 100-108) in S/L experimental medium, all other supplements were equivalent to maintenance media (S/L or 2i/L). […]

[5] = test system: UTX/Jmjd3; test: H3K27me3 ChIP-PCR at bivalent domain promoters; settings: 30 μM, five hours
Procedure: Chromatin immunoprecipitation. Native ChIP assays (histones) were performed with approximately 6×10^6 ESCs per experiment. Cells were subject to hypotonic lysis and treated with micrococcal nuclease to recover mono- to tri-nucleosomes. Nuclei were lysed by brief sonication and dialyzed into N-ChIP buffer (10 mM Tris pH 7.6, 1 mM EDTA, 0.1% SDS, 0.1% Na-Deoxycholate, 1% Triton X-100) for 2 hr at 4° C. Soluble material was incubated overnight at 4° C. following addition of 3-5 μg of antibody bound to 75 μL protein A Dynal magnetic beads (Invitrogen), with 5% kept as input DNA. Magnetic beads were washed, chromatin was eluted, and ChIP DNA was dissolved in 10 mM Tris pH 8 for quantitative PCR reactions (see below).
ChIP-qPCR. Primers are listed below. All qPCR was performed using an Applied Biosystems StepOnePlus system and Power SYBR Green PCR master mix. ChIP samples were diluted 1:100 in H2O and 5 μL used per reaction. ChIP-qPCR signals were calculated as percent input.

[6] = test system: ESC-1 cells; test: Western blot of histone methylation in glutamine-free media with DM-αKG supplementation; settings: glutamine-free S/L or 2i/L media, 24 hours
Procedure: as §1

[7] = test system: ESC-1 cells; test: DNA methylation quantification (% 5mC); settings: S/L medium, 24 hours
Procedure: DNA methylation. Genomic DNA was extracted from ESC samples using Puregene Core Kit A (Sigma). DNA methylation was measured using the colorimetric MethylFlash Methylated DNA quantification kit (Epigentek) according to manufacturer instructions.

[8] = test system: ESC-V19 cells; test: Growth curves in glutamine-free medium; settings: glutamine-free S/L or 2i/L media, 4 mM DM-αKG
Procedure: as §1
Growth curves. […] Cells were counted each day using a Beckman Coulter Multisizer 4.

[9] = test system: Nanog-GFP ESCs; test: Nanog-GFP reporter FACS; settings: S/L medium, three days
Procedure: FACS. Nanog-GFP ESCs^8 were cultured in S/L experimental medium for three passages and 2.5×10^4 cells were plated into a 6-well plate. Twenty-four hours later media was changed to S/L medium containing vehicle control or DM-AKG. Media was subsequently changed 48 hours later and cells harvested the following day. FACS analysis was performed at The Rockefeller University Flow Cytometry Resource Center using a BD LSR II. Data was generated using FlowJo. Analysis was performed on biological triplicates.

COC(=O)CCC(=O)OC [DM-succinate, dimethyl-succinate]
expression of ICM and germline-associated genes [1]: not | predominant colony types [2]: either mixed or differentiated | number of undifferentiated colonies [2]: reproducible trend of fewer undifferentiated and more differentiated colonies

CCOC(=O)CCNc1cc(N2CCc3ccccc3CC2)nc(-c2cccnc2)n1 [GSK-J5]
αKG:succinate ratio [3]: had no effect

CCOC(=O)CCNc1cc(N2CCc3ccccc3CC2)nc(-c2ccccn2)n1 [GSK-J4]
H3K27me1 level (Western blot) [4]: concomitant reduction of H3K27me1 | H3K27me3 level (Western blot) [4]: dose-dependent increase in H3K27me3 | absolute and relative increase in the αKG:succinate ratio, 2i/L compared with S/L [3]: more pronounced in the cells grown in 2i/L medium | αKG:succinate ratio [3]: triggered increases in the αKG:succinate ratio | H3K27me3 at bivalent domain promoters ([5]; ESC-1 cells in 2i/L medium): consistent increase in H3K27me3 at bivalent domain promoters | H3K27me3 at bivalent domain promoters ([5]; ESC-1 cells in S/L medium): did not change

COC(=O)CCC(=O)C(=O)OC [DM-αKG, dimethyl-α-ketoglutarate]
effects on gene expression in Tet1/Tet2 double knockout ES cells ([1]; 72 hours): largely abrogated in Tet1/Tet2 double knockout ES cells | expression of ICM and germline-associated genes [1]: induced expression of ICM and germline-associated genes | effects on gene expression upon extended passaging ([1]; S/L medium, 24 hours or four passages): persisted upon extended passaging | colony staining and morphology (brightfield images) [2]: stained brighter and retained a more compact colony morphology | number of undifferentiated colonies [2]: more than double the number of fully undifferentiated colonies; also recorded: more undifferentiated colonies than vehicle or DM-succinate treated wells | H3K27me3 and H4K20me3 levels (Western blot) [6]: reversed the increase in H3K27me3 and H4K20me3 | total DNA methylation (% 5mC) [7]: reduced | glutamine-independent proliferation [8]: sufficient to enable glutamine-independent proliferation in both S/L and 2i/L conditions | Nanog expression detected by GFP fluorescence [9]: sufficient to enhance Nanog expression in a dose-dependent manner
